Paper PMC9303975 (Proceedings of the National Academy of Sciences of the …, 2022)
Bridges are numbered along the chain shown (N, C = ends). Where no end group is shown, it is not given here.

Legend:
[1] = tested on: PLA2R autoantibody (27 MN anti-PLA2R positive sera); test: BLI direct interaction assay: immobilized peptides with anti-PLA2R positive sera; type: binding, human; conditions: BLI (Octet Red); 27 MN sera at 1/200; dissociation rate from Hill-1 plot; n = 3
Method: BLI experiments were conducted using an Octet Red (ForteBio). Octet CDL sensors (coated with a thin layer of carboxymethyl dextran) were activated by EDC/NHS, at the same concentration used for SPR, for 300 s with 1000 rpm agitation. […] Following immobilization, sensors were deactivated in 1 M ethanolamine for 300 s to prevent further immobilization of proteins to the samples sensors.
The association phase was measured for 450 s with 1000 rpm agitation. The dissociation phase for each sensor was subsequently measured by incubating the sensors into Hepes-sera buffer for 1200 s at 1000 rpm. Regeneration of the sensor was achieved by six successive washes in 10 mM NaOH for 15 s followed by 15 s in Milli-Q water. The immobilized sensor responses to anti-PLA2R IgG were calibrated against nonspecific binding of each immobilized sensor to Hepes-sera buffer.
The dissociation phase of each response was collected and plotted, and the dissociation rate was calculated (kd) as the 1/k value produced from a Hill-1 plot analysis. The average dissociation rate was calculated for each peptide sensor binding to the 27 MN patients’ sera. Dissociation rates with an R^2 value <0.9 or χ^2 value >3 were excluded from the data due to poor fitting.

[2] = tested on: PLA2R autoantibody from one MN patient serum; test: Peptide microarray binding detection (PEPperCHIP); conditions: MN patient serum at 1:100, goat anti-human IgG DyLight 680
From the text: To probe the importance of the amino acids within the PLA2R epitope in human autoantibody recognition, we utilized a printed peptide microarray. This peptide laser printing technology allows the synthesis of peptides (between 15 and 20 amino acids in length) directly onto glass slides followed by single substitution scans, which involves the stepwise substitution of all amino acid positions of a given epitope with all 20 main amino acids (Fig. 1A). We first synthesized a stepped series of truncated peptides across the originally discovered 31mer epitope (at both N- and C-terminus end) in order to identify the minimum sequence retaining high-affinity binding. […] We have previously shown that the epitope peptide is a disulphide-bonded structure, and its reactivity to human anti-PLA2R is sensitive to reduction ([8]). […] The substitution scan of these two regions was performed by exchange of the native amino acids with all 20 main amino acids. […] To further investigate this, a second array (platform 3) combined both parts of the N-terminal region and the cyclic C-terminal region. […]
Peptide microarrays were generated and performed by PEPperPRINT (Heidelberg, Germany) ([31], [32]). […] Peptide spot intensity quantification and peptide annotation were executed with PepSlide Analyzer. […]

[3] = tested on: human anti-PLA2R antibody (MN anti-PLA2R IgG) binding to PLA2R-NC3; test: SPR inhibition assay: peptides block anti-PLA2R IgG binding to immobilized PLA2R-NC3; conditions: SPR (ProteOn), 1 µM peptide, anti-PLA2R IgG 1/100 in Hepes buffer pH 7.2, maximal response, n = 3
Method: Real-time binding analysis was evaluated using an SPR instrument (ProteOn, BIO-RAD). ProteOn GLC sensor lanes were preactivated by injection of 18.75 mg/mL EDC (1-ethyl-3-(3-dimethylaminopropyl) carbodiimide) and 1.4 mg/mL NHS (N-hydroxysuccinimide, Sigma-Aldrich). Once activated, 20 μg/mL PLA2R-NC3 in 10 mM sodium acetate buffer (pH 4.5) (BIO-RAD) was injected onto sensor chip lanes for immobilization. Ethanolamine was injected to deactivate the sensors from further immobilization.
Subsequently, all AIPs were tested in triplicate using the same concentration. […] Hepes buffer was subsequently flown over, and the dissociation phase was measured for 400 s. The sensors were then regenerated with two successive injections (40 s) of 10 mM NaOH (sodium hydroxide). Each measured response of anti-PLA2R IgG with or without peptides to immobilized PLA2R-NC3 protein was calibrated against nonspecific binding of the sensor to Hepes buffer and Hepes buffer containing antibodies with or without peptides to a blank immobilized sensor. The maximal response was measured for all conditions of anti-PLA2R IgG and percentage inhibition of PLA2R autoantibody binding to PLA2R by AIPs calculated.

PLA2R autoantibody = test: Autoantibody binding to Endo180 protein (western blot and dot blot, Fig. S2); design: species or system human; conditions: western blot non reduced and reduced; dot blot under native condition
Method: To determine the contribution of the conformation of the epitope sequence, the binding of the autoantibody was tested against Endo180 protein, another member of the mannose receptor family with high structural homology of the PLA2R CysR domain (SI Appendix, Fig. S2).
Fig. S2: PLA2R autoantibodies incapable of binding to Endo180 potentially due to lack of surface cavity in the P28mer epitope region.
A) Sequences from the P28mer region in the mannose receptor family proteins were subjected to consensus mapping by weblogo. Residues conserved in all mannose receptor proteins are indicated with *. B) Western blot analysis of PLA2R and Endo180 under non reduced and reduced conditions using anti-His and human PLA2R autoantibody. C) Dot blot analysis of PLA2R and […]
PLA2R autoantibody under native condition. D) Comparison of the PLA2R, DEC -205 (5ao5) and Endo-180 (7jpt) structures and their overlays. The RSMD values generated were 3.184 Å RMSD for analysis between PLA2R and Endo180, 3.558 Å RMSD for DEC-205 and Endo180, where Endo180 was used as reference.
(1 picture or pasted object on this page, not shown here)

Row | Molecule | binding affinity of immobilized peptide to anti-PLA2R positive sera, relative to P28mer [1] | autoantibody binding to printed peptide (fluorescence intensity) [2] | further results
1 | SVLTLENCK [AIP2] | lower affinity than the P28mer |  | 
2 | KGIFVIQSESLKKC [platform 1, microarray-printed linear region […] of P28mer] |  | no significant binding | 
3 | CIQAGKSVLTLENCK (disulfide 1-14 (inferred)) [platform 2, microarray-printed cyclic region […] of P28mer, cyclized by disulphide] |  | no significant binding | 
4 | VIQSESLK [AIP1] | lower affinity than the P28mer |  | percentage inhibition of PLA2R autoantibody binding to PLA2R [3]: ~40%
5 | Endo180: mannose receptor family protein with high structural homology to the PLA2R CysR domain (protein, UniProt Q9UBG0 31-1479, looked up) C-type mannose receptor 2: GAPGDAALPEPNVFLIFSHGLQGCLEAQGGQVRVTPACNTSLPAQRWKWVSRNRLFNLGTMQCLGTGWPGTNTTASLGMYECDREALNLRWHCRTLGDQLSLLLGARTSNISKPGTLERGDQTRSGQWRIYGSEEDLCALPYHEVYTIQGNSHGKPCTIPFKYDNQWFHGCTSTGREDGHLWCATTQDYGKDERWGFCPIKSNDCETFWDKDQLTDSCYQFNFQSTLSWREAWASCEQQGADLLSITEIHEQTYINGLLTGYSSTLWIGLNDLDTSGGWQWSDNSPLKYLNWESDQPDNPSEENCGVIRTESSGGWQNRDCSIALPYVCKKKPNATAEPTPPDRWANVKVECEPSWQPFQGHCYRLQAEKRSWQESKKACLRGGGDLVSIHSMAELEFITKQIKQEVEELWIGLNDLKLQMNFEWSDGSLVSFTHWHPFEPNNFRDSLEDCVTIWGPEGRWNDSPCNQSLPSICKKAGQLSQGAAEEDHGCRKGWTWHSPSCYWLGEDQVTYSEARRLCTDHGSQLVTITNRFEQAFVSSLIYNWEGEYFWTALQDLNSTGSFFWLSGDEVMYTHWNRDQPGYSRGGCVALATGSAMGLWEVKNCTSFRARYICRQSLGTPVTPELPGPDPTPSLTGSCPQGWASDTKLRYCYKVFSSERLQDKKSWVQAQGACQELGAQLLSLASYEEEHFVANMLNKIFGESEPEIHEQHWFWIGLNRRDPRGGQSWRWSDGVGFSYHNFDRSRHDDDDIRGCAVLDLASLQWVAMQCDTQLDWICKIPRGTDVREPDDSPQGRREWLRFQEAEYKFFEHHSTWAQAQRICTWFQAELTSVHSQAELDFLSHNLQKFSRAQEQHWWIGLHTSESDGRFRWTDGSIINFISWAPGKPRPVGKDKKCVYMTASREDWGDQRCLTALPYICKRSNVTKETQPPDLPTTALGGCPSDWIQFLNKCFQVQGQEPQSRVKWSEAQFSCEQQEAQLVTITNPLEQAFITASLPNVTFDLWIGLHASQRDFQWVEQEPLMYANWAPGEPSGPSPAPSGNKPTSCAVVLHSPSAHFTGRWDDRSCTEETHGFICQKGTDPSLSPSPAALPPAPGTELSYLNGTFRLLQKPLRWHDALLLCESRNASLAYVPDPYTQAFLTQAARGLRTPLWIGLAGEEGSRRYSWVSEEPLNYVGWQDGEPQQPGGCTYVDVDGAWRTTSCDTKLQGAVCGVSSGPPPPRRISYHGSCPQGLADSAWIPFREHCYSFHMELLLGHKEARQRCQRAGGAVLSILDEMENVFVWEHLQSYEGQSRGAWLGMNFNPKGGTLVWQDNTAVNYSNWGPPGLGPSMLSHNSCYWIQSNSGLWRPGACTNITMGVVCKLPRAEQSSFSPSALPENPAALVVVLMAVLLLLALLTAALILYRRRQSIERGAFEGARYSRSSSSPTEATEKNILVSDMEMNEQQE |  |  | interaction of the autoantibody with the protein (PLA2R autoantibody): No interaction was detected
